# Assay results as given in PubChem BioAssay AID1259427 (Fisher Drug Discovery Resource Center, 2018).
# Values joined by “and” are separate entries in the source; they are usually repeats but may differ in a detail not shown here. Equal entries are not always repeated. Active and inactive are the calls of the source.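 How the source made its calls: active means EC50 at or below a set limit, with no effect in the paired counter-screen assay; inactive means the rest.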
# Target: Aedes aegypti neuropeptide Y-like receptor 7 (NPYLR7)
# Experiment: NPYLR7 activation potency in cells – cell-based, Aedes aegypti, hit validation, mosquito biting behavior, confirmation (AID 1259427);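 further: potency of agonists that activate the receptor and raise the calcium signal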
# Details: HEK293T NPYLR7/Galpha15/GCaMP6s, calcium fluorescence
row,SMILES,EC50
1,COc1cc(C=CC(=O)c2ccc3c(c2)OCCO3)cc(Br)c1O,inactive
2,COc1ccc(S(=O)(=O)NCC2CCCN(C(=O)CSc3ccccc3)C2)cc1 (configuration not stated),11.3 µM
3,CN(Cc1cnc2ccccc2n1)C(=O)C1CC2(CCNCC2)CN1 (configuration not stated),> 20 µM (inactive)
4,FC(F)(F)c1ccc(-c2nc3ccc(Cl)cn3c2NCc2ccccc2)cc1,> 20 µM (inactive)
5,CC1C(=O)N(c2cccc(F)c2)CCN1C(=O)C1CC1 (configuration not stated),> 20 µM (inactive)
6,CN(Cc1ccccc1)c1cc(Oc2cccc(Cl)c2)ncn1,> 20 µM (inactive)
7,COc1ccc(NC(=O)C2C=CCN2)cc1NC(=O)c1ccco1 (configuration not stated),> 20 µM (inactive)
8,C=C(C)Cn1c(C(=O)N2CCN(C(=O)CCC(=O)OCC)C(C)C2)cc2ccoc21 (configuration not stated),6.05 µM
9,COC(=O)C1CCN(S(=O)(=O)c2c(F)cc(F)cc2Br)CC1,> 20 µM (inactive)
10,COCCn1c(C)cn2c3c(=O)n(Cc4ccc(Cl)cc4)c(=O)n(C)c3nc12,> 20 µM (inactive)
11,N#Cc1c(N)nc2c(c1N)C(Sc1ccccc1)c1ccc(O)cc1O2 (configuration not stated),< 0.039 µM (inactive)
12,N#CC(C#N)=C1C=C2C=C(N3CCCC3)CCC2CC1 (configuration not stated),< 0.039 µM (inactive)
13,CCOC(=O)c1ccccc1-c1c2ccc(=N)cc-2oc2cc(N)ccc12,< 0.039 µM (inactive)
14,O=C(CC(c1cccc([N+](=O)[O-])c1)c1c[nH]c2ccccc12)NC1CC1 (configuration not stated),> 20 µM (inactive)
15,O=C1C(=Cc2ccccc2O)NC(=S)N1Cc1ccco1,inactive
16,NCCNc1ccc2c3c(cccc13)C(=O)N(c1ccc(Cl)cc1)C2=O,inactive
17,CCOC(=O)C1CCCN(CC(=O)N2N=C(c3ccccc3Cl)CC2c2ccc(Cl)cc2)C1 (configuration not stated),> 20 µM (inactive)
18,CC[C@@]1(O)C(=O)OCc2c1cc1n(c2=O)Cc2cc3c(CN(C)C)c(O)ccc3nc2-1,inactive
19,O=c1oc2c(CN3CCN(CCO)CC3)c(O)ccc2cc1-c1nc2ccccc2s1,< 0.039 µM (inactive)
20,CCOC=C(C#N)c1nc(C)cs1,inactive
21,O=C(Nc1cccc(-c2nnco2)c1)C1CCCCC1,> 20 µM (inactive)
22,Cc1nc(Sc2nnc3ccccn23)c2c3c(sc2n1)CCCC3,> 20 µM (inactive)
23,O=c1[nH]c(CCl)nc2sc3c(c12)CCN(Cc1ccccc1)C3,> 20 µM (inactive)
24,Nc1nc(Cl)nc2c1ncn2[C@@H]1O[C@H](COP(=O)(O)OP(=O)(O)OP(=O)(O)O)[C@H](O)C1O (some centres not stated),< 0.039 µM (inactive)

row,SMILES,EC50
1,Cc1ccc2c(c1)CCCN2CC(=O)N(CCC(N)=O)c1ccccc1,> 20 µM (inactive)
2,CCOC(=O)C1CCCN(c2nc3nonc3nc2N2CCSCC2)C1 (configuration not stated),> 20 µM (inactive)
3,Cc1nn(C)c(Cl)c1/C=C1/CCCc2c1nc1ccccc1c2C(=O)O,19.2 µM
4,CCOC(=O)c1c(-c2ccccc2)csc1N=Cc1nc(-c2ccco2)oc1O,> 20 µM (inactive)
5,O[C@@H]1CN(Cc2ccncc2Cl)CC[C@H]1c1ccc2c(c1)OCO2,> 20 µM (inactive)
6,CCN=c1cc2oc3cc(NCC)c(C)cc3c(-c3ccccc3C(=O)OCC)c-2cc1C,inactive
7,COc1cc(NC(=O)N2CC(=O)N3CCc4c(F)cccc4C3C2)cc(OC)c1OC (configuration not stated),> 20 µM (inactive)
8,CCN1C(=Cc2cc(C)[n+](C3CCCCC3)c(C)c2)Sc2ccccc21,> 20 µM (inactive)
9,Cc1ccc(CN(C(=O)c2cc3cc(Cl)ccc3[nH]2)C(C)C)o1,> 20 µM (inactive)
10,CC(=O)Oc1ccc(Cn2c(C)c(C(=O)NCc3ccc(C#N)cc3)sc2=O)cc1,> 20 µM (inactive)
11,Cc1cc2c(c(-c3ccc4c(cnn4C)c3)c1)OC(CN)C2 (configuration not stated),> 20 µM (inactive)
12,CC1CC2(C)Oc3ccccc3C3OCC1(CO)C(C)C32 (configuration not stated),> 20 µM (inactive)
13,O=C1NC(=O)C2=Cc3ccc(O)cc3OC2(O)N1 (configuration not stated),inactive
14,N#Cc1cc2cc(Cl)cc(Cl)c2oc1=O,inactive
15,O=C(c1snc2c(=O)n(Cc3ccccc3)c(=O)[nH]c12)N1CCSCC1,> 20 µM (inactive)
16,Cc1nc(=O)c(-c2ccccc2)c(C)n1-c1ccccc1O,> 20 µM (inactive)
17,CCN1CCc2c(sc(NC(=O)C3=COCCO3)c2-c2nc3ccccc3s2)C1,inactive
18,O=C(CN1C(=O)SC(=Cc2ccc(N3CCCCCC3)o2)C1=O)N1CCCCCC1,> 20 µM (inactive)
19,CCOC(=O)N1CCN(c2ccc(/C=C(\C#N)c3nc4ccccc4[nH]3)o2)CC1,> 20 µM (inactive)
20,CN1C(=S)N(c2ccc3c(c2)CCC3)C(=O)/C1=C\c1ccncc1,> 20 µM (inactive)
21,CCN1C(=Cc2ccc3cc(C)ccc3[n+]2CC)Sc2ccccc21,inactive
22,Cc1cc(O)c(CN2CCN(C)CC2)c2c1C(=O)/C(=C/c1cccs1)O2,> 20 µM (inactive)
23,N#CC1C(=N)Oc2cc(O)ccc2C1c1ccccc1I (configuration not stated),inactive
24,O=C1c2cccc3c(NCCO)ccc(c23)C(=O)N1CCO,< 0.039 µM (inactive)

row,SMILES,EC50
1,O=C1Nc2ccccc2C1C=NN1CCOCC1 (configuration not stated),> 20 µM (inactive)
2,O=[N+]([O-])c1cc(S(=O)(=O)Nc2cc(Cl)ccc2F)ccc1F,> 20 µM (inactive)
3,O=C1NC(=NS(=O)(=O)c2ccccc2)SC1=Cc1cc([N+](=O)[O-])ccc1O,> 20 µM (inactive)
4,O=C(c1nccc2ccccc12)N1CCN(CC2CCCC2)CC1,> 20 µM (inactive)
5,Nc1c(S(=O)(=O)O)cc2c3c(cccc13)C(=O)N(CCO)C2=O,inactive
6,CCN(CC)CC[n+]1c(C)cc(C=C2Sc3ccccc3N2C)cc1C,> 20 µM (inactive)
7,CC(C)(C)NCC(O)c1ccc(O)c(CO)c1 (configuration not stated),> 20 µM (inactive)
8,CSc1ccc(C2CC(c3cccs3)=Nc3ncnn32)cc1 (configuration not stated),inactive
9,Cn1c(C(C#N)=Cc2c(F)c(F)c(F)c(F)c2F)nc2ccccc21,< 0.039 µM (inactive)
10,Cc1cc(O)c(CN2CCCC2)c2c1C(=O)/C(=C/c1cc3ccccc3o1)O2,> 20 µM (inactive)
11,CCOC(=O)c1cc(O)c(C(=O)OCC)s1,> 20 µM (inactive)
12,N#CC(C#N)=C1C=C2C=C(N3CCN(Cc4ccccc4)CC3)CCC2CC1 (configuration not stated),> 20 µM (inactive)
13,COc1ccc2c(c1)OCC(C=C(C#N)S(=O)(=O)c1ccc(Br)cc1)=C2,> 20 µM (inactive)
14,CC(C)NC[C@H](O)c1ccc(O)c(O)c1,< 39 nM (inactive) and > 20 µM (inactive)
15,COc1ccc(-c2cccc(-c3ccc(NC(=O)c4oc5ccccc5c4C)cc3)n2)cc1,> 20 µM (inactive)
16,CCN(CC)c1ccc(/C=C2\SC(=S)N(CCS(=O)(=O)O)C2=O)cc1,inactive
17,COc1cccc(CNC2CC2)c1OCc1nc(CO)cs1,> 20 µM (inactive)
18,O=C(O)c1csc(CSc2nnc(Cc3ccccc3)n2-c2cccc(C(F)(F)F)c2)n1,> 20 µM (inactive)
19,NC(=O)CN1c2cccc3cccc(c23)S1(=O)=O,> 20 µM (inactive)
20,CNC(=O)NC(=O)CCN1CC(c2ccccc2Cl)c2c([nH]c3ccccc23)C1C (configuration not stated),> 20 µM (inactive)
21,N#Cc1cc(C(=O)c2cc(Cl)cc(Cl)c2O)cn(-c2nccs2)c1=O,14.4 µM
22,O=C(C1=NN(c2ccccc2)C2C(=O)N(c3ccccc3)C(=O)C12)c1ccccc1 (configuration not stated),> 20 µM (inactive)
23,O=c1oc2cc(O)ccc2cc1-c1nc2ccccc2s1,inactive
24,Cc1cc2nc3c(=O)[nH]c(=O)nc-3n(CC(O)C(O)C(O)CO)c2cc1C (configuration not stated),< 0.039 µM (inactive)
